The source of these data is patent US20110312513A1, “BIOMARKERS FOR PREDICTING SUSTAINED RESPONSE TO HCV TREATMENT” (ROCHE MOLECULAR SYSTEMS, INC., priority 2009, published 2011).

Data set [1] in a line: Phase II clinical trial of RO4588161: premature withdrawal for safety reasons. The data set is classed as in vivo, human. Particulars: among the 104 evaluable patients. An excerpt: A screening period (time from the first screening assessment to the first administration of test drug) of 35 days preceded the treatment portion of the trial (FIG. 1). The HCV genotype and HCV RNA titer of each patient was confirmed during the screening period and only treatment-naïve patients with HCV genotype-1 and HCV RNA titer ≧50,000 IU/mL were eligible for enrollment.
One hundred and seven male and female patients between 18 and 66 years of age were enrolled into the study.

A further data set has as its system HCV. To be noted: monotherapy; cited from earlier work.

Molecules are shown by their SMILES.

Turning to `CC(C)C(=O)OC[C@@]1(N=[N+]=[N-])O[C@@H](n2ccc(N)nc2=O)[C@H](OC(=O)C(C)C)[C@@H]1OC(=O)C(C)C` [RO4588161, Isobutyric acid (2R,3S,4R,5R)-5-(4-amino-2-oxo-2H-pyrimidin-1-yl)-2-azido-3,4-bis-isobutyryloxy-tetrahydro-furan-2-ylmethyl ester], in data set [1], the “patients who prematurely withdrew for safety reasons from treatment” value was 43 patients.

With `NC(=O)c1ncn([C@@H]2O[C@H](CO)[C@@H](O)[C@H]2O)n1` [ribavirin, 1-((2R,3R,4S,5R)-3,4-Dihydroxy-5-hydroxymethyl-tetrahydro-furan-2-yl)-1H-[1,2,4]triazole-3-carboxylic acid amide], the “patients who prematurely withdrew for safety reasons from treatment” value in data set [1] was determined as 5 patients. In addition, in the data set on HCV, the “effect on serum levels of HCV-RNA” value is reported as “does not lower serum levels of HCV-RNA” and the “patients with serum amino transferase levels reduced to normal” value is given as 40%.
